The assay deals with T1, farnesol X receptor (FXR) (Homo sapiens, UniProt Q96RI1).
T1 construct: endogenous in cells; host or cells: HepG2
T1 sequence (Q96RI1 1-486): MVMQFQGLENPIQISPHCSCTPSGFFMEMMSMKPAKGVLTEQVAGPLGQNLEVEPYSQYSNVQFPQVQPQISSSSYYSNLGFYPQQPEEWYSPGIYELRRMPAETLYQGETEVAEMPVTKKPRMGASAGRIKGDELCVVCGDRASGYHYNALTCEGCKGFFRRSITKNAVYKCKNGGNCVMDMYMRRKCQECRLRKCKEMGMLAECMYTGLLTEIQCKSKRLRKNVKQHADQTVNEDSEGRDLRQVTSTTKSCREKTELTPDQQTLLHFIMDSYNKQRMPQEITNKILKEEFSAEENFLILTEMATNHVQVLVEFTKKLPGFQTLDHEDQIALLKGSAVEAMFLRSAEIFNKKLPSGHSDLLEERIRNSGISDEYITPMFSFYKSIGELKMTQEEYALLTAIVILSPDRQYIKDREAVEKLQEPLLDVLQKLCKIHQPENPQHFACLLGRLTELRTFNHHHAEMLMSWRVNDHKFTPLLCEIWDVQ
The assay can be described thus: Farnesol X receptor (FXR) reporter gene assay (dual luciferase) in HepG2 cells. Type of assay: cell-based. The following applies: for fold induction at 10 µM: HepG2 cells, drug treatment 24 hours, firefly/renilla luciferase ratio, Con = 1.00; for FXR activating effect compared with GW4064: statement on Table 4 data. As for the experimental part:
HepG2 cells were purchased from ATCC (Manassas, VA, USA) and cultured in Dulbecco's modified Eagle's medium (DMEM; Hyclone) containing 10% fetal bovine serum (FBS, Hyclone, Logan, UT, USA), 50 units/mL penicillin (Hyclone) and 50 μg/mL streptomycin (Hyclone). All cells were cultured to have a confluency of about 80% to 90% under the conditions of 37° C. and 5% Co2.
In order to measure FXR transcription factor activity, HepG2 cells (1×10^5 cells/well) were cultured in a 48-well cell culture plate (SPL Life Science Co., Gyeonggido, Korea) for 20 hours and then transduced using Lipofectamin L3000 (Invitrogen, San Diego, CA, USA). Luciferase is an enzyme that catalyzes light-emitting reactions. A plasmid in which the firefly luciferase gene was fused to farnesol X receptor (FXR) and a plasmid in which the renilla luciferase gene was fused to thymidine kinase (TK) were used for transduction. Reacted were 25 μL of serum and antibiotic-free Opti-MEM® (Life Technologies, Grand Island, NY) and 0.5 μL of Lipofectamin L3000 per 0.5 μg of FXR-firefly luciferase plasmid and 10 ng of TK-renilla luciferase plasmid, and the cells were reacted with the reaction mixture for 24 hours. Thereafter, DMEM medium containing 0.1% serum was treated with a drug for 24 hours. After the reaction was completed, the drug-treated culture medium was discarded, and lysis buffer was added at 0.4 ml/well to remove the cells, then the cells were dispensed into a 96-well white plate (SPL Life Science Co.), and the luminescence level was measured using the Dual-glo Luciferase Assay System (Promega, Madison, WI, USA). For the firefly luciferase activity (to see the level of FXR expression) and renilla luciferase activity (to provide a reference value by showing constant expression), the luminescence level was measured using the GloMax Multi Detection System (Promega) and then the relative ratio (firefly luciferase activity/renilla luciferase activity) was calculated.

The fold induction is the ratio of treated to control signal. Take `COC(=O)CCNC(=O)/C=C/c1ccc(OCc2c(-c3c(Cl)cccc3Cl)noc2C)cc1` [KS-044, methyl (E)-3-(3-(4-((3-(2,6-dichlorophenyl)-5-methylisoxazol-4-yl)methoxy)phenyl)acrylamido)propanoate]: the fold induction at 10 µM came to 2.21. Still for that read-out and setting: then `CCOC(=O)CNC(=O)/C=C/c1ccc(OCc2ccc(-c3ccccc3)cc2)cc1` [KS-004, ethyl (E)-(3-(4-([1,1′-biphenyl]-4-ylmethoxy)phenyl)acryloyl)glycinate], with 2.03. Still for that read-out and setting: the result for `Cc1onc(-c2ccccc2)c1COc1ccc(/C=C/C(=O)NCC(=O)O)cc1` [KS-024, (E)-(3-(4-((5-methyl-3-phenylisoxazol-4-yl)methoxy)phenyl)acryloyl)glycine] reads 1.68; that for `O=C(O)CNC(=O)/C=C/c1ccc(O)cc1` [KS-013, (E)-(3-(4-hydroxyphenyl)acryloyl)glycine], 1.46.

Take `CC(C)c1onc(-c2c(Cl)cccc2Cl)c1COc1ccc(/C=C/C(=O)N[C@@H](C)C(=O)O)cc1` [KS-028, (E)-(3-(4-((3-(2,6-dichlorophenyl)-5-isopropylisoxazol-4-yl)methoxy)phenyl)acryloyl)-L-alanine]: the fold induction at 10 µM turned out to be 7.44 and the “FXR activating effect compared with GW4064” value is recorded as “superior to GW4064”. `CCOC(=O)[C@@H](NC(=O)/C=C/c1ccc(OCc2c(-c3ccccc3)noc2C)cc1)C(C)C` [KS-033, ethyl (E)-(3-(4-((5-methyl-3-phenylisoxazol-4-yl)methoxy)phenyl)acryloyl)-L-valinate]: the fold induction at 10 µM was found to be 0.93. Turning to `COC(=O)[C@@H](C)NC(=O)/C=C/c1ccc(OCc2c(-c3ccccc3)noc2C)cc1` [KS-051, methyl (E)-(3-(4-((5-methyl-3-phenylisoxazol-4-yl)methoxy)phenyl)acryloyl)-D-alaninate], the fold induction at 10 µM worked out at 1.34. Consider `COC(=O)CCNC(=O)/C=C/c1ccc(OCc2c(-c3c(Cl)cccc3Cl)noc2C(C)C)cc1` [KS-043, methyl (E)-3-(3-(4-((3-(2,6-dichlorophenyl)-5-isopropylisoxazol-4-yl)methoxy)phenyl)acrylamido)propanoate], for which the fold induction at 10 µM amounted to 10 and the “FXR activating effect compared with GW4064” value is recorded as “superior to GW4064”. As to `CCOC(=O)[C@@H](NC(=O)/C=C/c1ccc(OCc2c(-c3c(Cl)cccc3Cl)noc2C)cc1)C(C)C` [KS-032, ethyl (E)-(3-(4-((3-(2,6-dichlorophenyl)-5-methylisoxazol-4-yl)methoxy)phenyl)acryloyl)-L-valinate], the fold induction at 10 µM stood at 1.89. In the case of `CCOC(=O)CNC(=O)/C=C/c1ccc(OCc2c(-c3c(Cl)cccc3Cl)noc2C(C)C)cc1` [KS-010, ethyl (E)-(3-(4-((3-(2,6-dichlorophenyl)-5-isopropylisoxazol-4-yl)methoxy)phenyl)acryloyl)glycinate], the fold induction at 10 µM is 10.5 and the “FXR activating effect compared with GW4064” value is reported as “superior to GW4064”.

As to `Cc1onc(-c2c(Cl)cccc2Cl)c1COc1ccc(/C=C/C(=O)N[C@@H](Cc2ccccc2)C(=O)O)cc1` [KS-041, (E)-(3-(4-((3-(2,6-dichlorophenyl)-5-methylisoxazol-4-yl)methoxy)phenyl)acryloyl)-L-phenylalanine], the fold induction at 10 µM amounted to 3.23. For the molecule `CC(C)c1onc(-c2c(Cl)cccc2Cl)c1COc1ccc(/C=C/C(=O)N[C@@H](Cc2ccccc2)C(=O)O)cc1` [KS-040, (E)-(3-(4-((3-(2,6-dichlorophenyl)-5-isopropylisoxazol-4-yl)methoxy)phenyl)acryloyl)-L-phenylalanine], the fold induction at 10 µM turned out to be 9 and the “FXR activating effect compared with GW4064” value is given as “superior to GW4064”.

With `CCOC(=O)CNC(=O)/C=C/c1ccc(O)cc1` [KS-001, ethyl (E)-(3-(4-hydroxyphenyl)acryloyl)glycinate], the fold induction at 10 µM worked out at 1.22.

In the case of `O=C(O)CNC(=O)/C=C/c1ccc(OCc2ccc([N+](=O)[O-])cc2)cc1` [KS-018, (E)-(3-(4-((4-nitrobenzyl)oxy)phenyl)acryloyl)glycine], the fold induction at 10 µM worked out at 1.28.

For `CCOC(=O)CNC(=O)/C=C/c1ccc(OCc2ccc(F)cc2)cc1` [KS-005, ethyl (E)-(3-(4-((4-fluorobenzyl)oxy)phenyl)acryloyl)glycinate], the fold induction at 10 µM came out at 1.21. In the case of `CC(C)c1onc(-c2c(Cl)cccc2Cl)c1COc1ccc(/C=C/C(=O)N[C@H](C)C(=O)O)cc1` [KS-052, (E)-(3-(4-((3-(2,6-dichlorophenyl)-5-isopropylisoxazol-4-yl)methoxy)phenyl)acryloyl)-D-alanine], the fold induction at 10 µM was found to be 8.12 and the “FXR activating effect compared with GW4064” value is given as “superior to GW4064”.

Consider `O=C(O)CNC(=O)/C=C/c1ccc(OCc2cccc([N+](=O)[O-])c2)cc1` [KS-020, (E)-(3-(4-((3-nitrobenzyl)oxy)phenyl)acryloyl)glycine], for which the fold induction at 10 µM was 1.39. As to `CC(C)c1onc(-c2c(Cl)cccc2Cl)c1COc1ccc(/C=C/C(=O)NCC(=O)O)cc1` [KS-022, (E)-(3-(4-((3-(2,6-dichlorophenyl)-5-isopropylisoxazol-4-yl)methoxy)phenyl)acryloyl)glycine], the fold induction at 10 µM was 3.34. Consider `CC(C)c1onc(-c2c(Cl)cccc2Cl)c1COc1ccc(/C=C/C(=O)N[C@H](C(=O)O)C(C)C)cc1` [KS-034, (E)-(3-(4-((3-(2,6-dichlorophenyl)-5-isopropylisoxazol-4-yl)methoxy)phenyl)acryloyl)-L-valine], for which the fold induction at 10 µM stood at 8.91 and the “FXR activating effect compared with GW4064” value was “superior to GW4064”. For `COC(=O)[C@@H](C)NC(=O)/C=C/c1ccc(OCc2c(-c3c(Cl)cccc3Cl)noc2C(C)C)cc1` [KS-049, methyl (E)-(3-(4-((3-(2,6-dichlorophenyl)-5-isopropylisoxazol-4-yl)methoxy)phenyl)acryloyl)-D-alaninate] the same measures were 9.55 and “superior to GW4064”. `Cc1onc(-c2ccccc2)c1COc1ccc(/C=C/C(=O)N[C@@H](C)C(=O)O)cc1` [KS-030, (E)-(3-(4-((5-methyl-3-phenylisoxazol-4-yl)methoxy)phenyl)acryloyl)-L-alanine]: the fold induction at 10 µM was determined as 0.82. Same read-out and setting: the result for `O=C(O)CNC(=O)/C=C/c1ccc(OCc2ccc(OC(F)(F)F)cc2)cc1` [KS-015, (E)-(3-(4-((4-(trifluoromethoxy)benzyl)oxy)phenyl)acryloyl)glycine] reads 2.65; that for `O=C(O)CNC(=O)/C=C/c1ccc(OCc2ccc(-c3ccccc3)cc2)cc1` [KS-016, (E)-(3-(4-([1,1′-biphenyl]-4-ylmethoxy)phenyl)acryloyl)glycine], 1.99; that for `O=C(O)CNC(=O)/C=C/c1ccc(OCc2ccccc2)cc1` [KS-014, (E)-(3-(4-(benzyloxy)phenyl)acryloyl)glycine], 1.42.
